Test results published in ChEMBL document CHEMBL1201862, “PubChem BioAssay data set” (2004).
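Exposure lasted 48 hours, with cells grown in 96-well plates and compounds tested at five concentrations. GI50: concentration for 50% inhibition of growth.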 Active and inactive are the calls of the source. Rule as the data show it: active = GI50 up to about 1.1 µM and inactive = higher.

Legend:
Assay in all cases: NCI anticancer screen, dose series, 48 h
NCI-H226 = tested on: NCI-H226
SR = tested on: SR
786-0 = tested on: 786-0
SW-620 = tested on: SW-620
KM12 = tested on: KM12
RPMI-8226 = tested on: RPMI-8226
A549 = tested on: A549
HL-60 = tested on: HL-60
M19-MEL = tested on: M19-MEL
SN12C = tested on: SN12C
COLO 205 = tested on: COLO 205
HT-29 = tested on: HT-29
TK-10 = tested on: TK-10
SK-MEL-28 = tested on: SK-MEL-28
SK-OV-3 = tested on: SK-OV-3
OVCAR-4 = tested on: OVCAR-4
NCI-H23 = tested on: NCI-H23
MOLT-4 = tested on: MOLT-4
SNB-19 = tested on: SNB-19
HCC 2998 = tested on: HCC 2998

Measured: GI50

N#CC(NNC(=O)Cc1ccccc1)c1cccc(O)c1 (centres undefined)
inactive: NCI-H226 > 100 µM | SR > 100 µM | 786-0 > 100 µM | SW-620 > 100 µM | KM12 > 100 µM | RPMI-8226 > 100 µM | A549 > 100 µM | HL-60 > 100 µM | M19-MEL > 100 µM | SN12C > 100 µM | COLO 205 > 100 µM | HT-29 > 100 µM | TK-10 > 100 µM | SK-MEL-28 > 100 µM | SK-OV-3 > 100 µM | OVCAR-4 > 100 µM | NCI-H23 > 100 µM | MOLT-4 > 100 µM

CC1=C(C(=O)Nc2cccc(C(F)(F)F)c2)C(c2ccccc2F)C(C(=O)Nc2cccc(C(F)(F)F)c2)=C(C)N1
inactive: NCI-H226 4.38 µM | 786-0 6.49 µM | SW-620 7.08 µM | SNB-19 7.16 µM | KM12 3.74 µM | RPMI-8226 2.58 µM | A549 4.58 µM | HL-60 2.69 µM | M19-MEL 7.45 µM | SN12C 7.96 µM | COLO 205 4.82 µM | HT-29 3.66 µM | TK-10 8.26 µM | SK-MEL-28 11 µM | SK-OV-3 10.4 µM | OVCAR-4 3.08 µM | NCI-H23 4.59 µM | HCC 2998 3.31 µM | MOLT-4 2.6 µM

CC(C)(Oc1ccc2c(=O)cc(-c3ccccc3)oc2c1)C(=O)Nc1c(Cl)cccc1Cl
inactive: SR > 100 µM | 786-0 97.1 µM | SW-620 > 100 µM | SNB-19 > 100 µM | KM12 79.1 µM | RPMI-8226 47.8 µM | A549 67.1 µM | HL-60 44.3 µM | M19-MEL 68.2 µM | HT-29 > 100 µM | TK-10 > 100 µM | SK-MEL-28 > 100 µM | SK-OV-3 > 100 µM | NCI-H23 > 100 µM | MOLT-4 76.4 µM

CC1=C(C(=O)Nc2ccc([N+](=O)[O-])cc2)C(c2ccc(N(C)C)cc2)C(C(=O)Nc2ccc([N+](=O)[O-])cc2)=C(C)N1
inactive: NCI-H226 17.6 µM | 786-0 23.3 µM | SW-620 23.9 µM | SNB-19 36.4 µM | KM12 11.6 µM | RPMI-8226 12.2 µM | A549 21.2 µM | HL-60 13.1 µM | M19-MEL 15.6 µM | SN12C > 10 µM | COLO 205 15.4 µM | HT-29 23.4 µM | TK-10 32 µM | SK-MEL-28 13.5 µM | SK-OV-3 23.4 µM | OVCAR-4 21.1 µM | NCI-H23 18 µM | HCC 2998 12 µM | MOLT-4 9.14 µM

COc1c(OC)c(OC)c2c(=O)cc(-c3ccc(OC(C)C)cc3)oc2c1OC
inactive: NCI-H226 15.1 µM | 786-0 > 34.1 µM | SW-620 > 44 µM | SNB-19 > 38.9 µM | KM12 30.9 µM | RPMI-8226 3.75 µM | A549 24.2 µM | HL-60 2.07 µM | SN12C > 38.9 µM | COLO 205 21.4 µM | HT-29 8.32 µM | TK-10 > 38.6 µM | SK-MEL-28 38.4 µM | SK-OV-3 > 35.7 µM | OVCAR-4 16.5 µM | NCI-H23 27.6 µM | HCC 2998 28.4 µM | MOLT-4 3.87 µM
active: SR 0.369 µM

Cc1ccc(Nc2ccc(Nc3ccc(C)cc3)c3c2C(=O)c2c(O)ccc(O)c2C3=O)cc1
inactive: 786-0 > 100 µM | SW-620 > 100 µM | SNB-19 > 100 µM | KM12 > 100 µM | RPMI-8226 > 100 µM | A549 > 100 µM | HL-60 80.9 µM | M19-MEL > 100 µM | SN12C > 100 µM | COLO 205 > 100 µM | TK-10 > 100 µM | SK-MEL-28 91.4 µM | SK-OV-3 > 100 µM | OVCAR-4 > 100 µM | NCI-H23 > 100 µM | HCC 2998 > 100 µM | MOLT-4 > 100 µM

O=C(C=P(c1ccccc1)(c1ccccc1)c1ccccc1)c1ccc(-c2ccc(F)cc2F)cc1
inactive: NCI-H226 2.43 µM | SR 3.44 µM | 786-0 3.56 µM | SW-620 3.58 µM | SNB-19 4.73 µM | KM12 3.42 µM | RPMI-8226 1.87 µM | A549 2.73 µM | HL-60 2.43 µM | SN12C 2.31 µM | COLO 205 1.64 µM | HT-29 2.18 µM | TK-10 2.2 µM | SK-MEL-28 2.95 µM | SK-OV-3 2.83 µM | OVCAR-4 2.9 µM | NCI-H23 3.22 µM | HCC 2998 2.08 µM | MOLT-4 1.83 µM

CCCn1c(=O)c2nn3c(=O)n(CCC)c(=O)c3nn2c1=O
inactive: NCI-H226 > 100 µM | SR > 100 µM | 786-0 > 100 µM | SW-620 > 100 µM | SNB-19 > 100 µM | KM12 > 100 µM | RPMI-8226 > 100 µM | A549 > 100 µM | HL-60 > 100 µM | SN12C > 100 µM | COLO 205 > 100 µM | HT-29 > 100 µM | TK-10 > 100 µM | SK-MEL-28 > 100 µM | SK-OV-3 > 100 µM | OVCAR-4 > 100 µM | NCI-H23 > 100 µM | HCC 2998 > 100 µM | MOLT-4 > 100 µM

[O-]c1c2cc(-[n+]3c(-c4ccccc4)cc(-c4ccccc4)cc3-c3ccccc3)cc1CO[C@@H](c1ccccc1)[C@H](c1ccccc1)OCCOCCO[C@@H](c1ccccc1)[C@H](c1ccccc1)OC2
active: NCI-H226 0.0885 µM | SR 0.0309 µM | 786-0 0.0448 µM | SW-620 0.0562 µM | SNB-19 0.0489 µM | KM12 0.0444 µM | RPMI-8226 0.0176 µM | A549 0.0451 µM | HL-60 0.0204 µM | SN12C 0.0398 µM | COLO 205 0.0195 µM | HT-29 0.0386 µM | TK-10 0.24 µM | SK-MEL-28 0.475 µM | SK-OV-3 0.0502 µM | OVCAR-4 0.107 µM | NCI-H23 0.0574 µM | HCC 2998 0.181 µM | MOLT-4 0.0397 µM

Nc1ccc(S2(c3ccc(N)cc3)C=C(c3ccccc3)C(c3ccccc3)=C2)cc1
inactive: NCI-H226 > 21.8 µM | SR > 45.5 µM | 786-0 24 µM | SW-620 > 57.7 µM | SNB-19 > 45 µM | KM12 > 54.7 µM | RPMI-8226 > 64 µM | A549 > 29.4 µM | HL-60 > 100 µM | SN12C > 25.3 µM | COLO 205 > 45 µM | HT-29 > 44.7 µM | TK-10 > 27.9 µM | SK-MEL-28 > 31.1 µM | SK-OV-3 > 26.9 µM | OVCAR-4 11 µM | NCI-H23 > 47.2 µM | HCC 2998 > 54 µM | MOLT-4 > 73.8 µM

O=C1C=CC(=O)N1c1ccc2c(c1)Cc1cc(NC(=O)C(F)(F)F)ccc1-2
inactive: NCI-H226 4.84 µM | SR 2.74 µM | 786-0 5.58 µM | SW-620 9.84 µM | SNB-19 > 47 µM | KM12 18.5 µM | RPMI-8226 2.9 µM | A549 17.9 µM | HL-60 12.2 µM | SN12C 17.1 µM | COLO 205 13.1 µM | HT-29 10.2 µM | TK-10 3 µM | SK-MEL-28 18.1 µM | SK-OV-3 > 100 µM | OVCAR-4 17.3 µM | NCI-H23 16.4 µM | HCC 2998 > 45.2 µM | MOLT-4 4.25 µM

N#Cc1c(N2CCCC2)nsc1NCc1ccccc1
inactive: NCI-H226 > 100 µM | SR > 100 µM | 786-0 > 100 µM | SW-620 > 100 µM | SNB-19 > 100 µM | KM12 > 100 µM | RPMI-8226 > 100 µM | A549 > 100 µM | HL-60 > 100 µM | SN12C > 100 µM | COLO 205 > 100 µM | HT-29 > 100 µM | TK-10 > 100 µM | SK-MEL-28 > 100 µM | SK-OV-3 > 100 µM | OVCAR-4 > 100 µM | NCI-H23 > 100 µM | HCC 2998 > 100 µM | MOLT-4 > 100 µM

O=[N+]([O-])c1ccc(C2=NOC(c3ccccc3)N2C23CC4CC(CC(C4)C2)C3)cc1 (centres undefined)
inactive: NCI-H226 30.5 µM | SR > 10 µM | 786-0 17.6 µM | SW-620 35.3 µM | SNB-19 > 10 µM | KM12 27.4 µM | RPMI-8226 > 10 µM | A549 32.9 µM | HL-60 26.6 µM | SN12C 46 µM | COLO 205 30 µM | HT-29 21.3 µM | TK-10 37.2 µM | SK-MEL-28 58.5 µM | SK-OV-3 43.2 µM | OVCAR-4 39.1 µM | NCI-H23 41 µM | HCC 2998 39 µM | MOLT-4 17.5 µM

Clc1cc(OCc2nn3c(Cc4ccccc4)nnc3s2)ccc1OCc1nn2c(Cc3ccccc3)nnc2s1
inactive: NCI-H226 54.6 µM | SR 35 µM | 786-0 19.5 µM | SW-620 79.8 µM | SNB-19 24.6 µM | KM12 79.8 µM | RPMI-8226 49.7 µM | A549 32.2 µM | HL-60 50.2 µM | SN12C 45.3 µM | COLO 205 > 100 µM | HT-29 79.1 µM | TK-10 29.4 µM | SK-MEL-28 42.2 µM | SK-OV-3 26.7 µM | OVCAR-4 19.4 µM | NCI-H23 38.9 µM | HCC 2998 44.1 µM | MOLT-4 34.4 µM
